Laboratory results: patent US5616573A, “Glucocorticoids” (Schering Aktiengesellschaft, priority 1993, dated 1997)
*1 amine or outer side, *2 acyl side, *3 side chain or, on linkers, in order; H or OH if unused. Where a SMILES comes first, the peptide text is derived from it. The star is where a group is joined. Methylprednisolone(17-OCOEt) = CCC(=O)O[C@]1(C(=O)CO*)CC[C@H]2[C@@H]3C[C@H](C)C4=CC(=O)C=C[C@]4(C)[C@H]3[C@@H](O)C[C@@]21C; Diphenylacetyl = O=C(C(c1ccccc1)c1ccccc1)*; 2Naphthoyl = O=C(c1ccc2ccccc2c1)*; X6 = O=C(CCn1c2ccccc2c2ccccc21)*; X7 = O=S(=O)(c1ccc(Cl)cc1)*; X8 = c1ccc(N(c2ccccc2)*)cc1; X4 = O=C(C=Cc1ccccc1)*; CO = O=C([*:1])[*:2]

System: Esterases of Rat Skin
Assay: Cleavage in the Homogenate of Normal Rat Skin (unspecific cleavage by esterases of rat skin)
Type: in vitro ADME
Settings: percent of hydrolysis rate of 6α-methylprednisolone-17-propionate-21-acetate; approximately 100 μmol/l, pH=7.4, 37° C.
Description: The homogenate of the skin of male rats (0.1 mol/l of phosphate buffer, pH=7.4) is centrifuged for 20 minutes at 10,000 g. The supernatant is adjusted in phosphate buffer to a protein concentration of 3 mg/ml. The test substances in 20 μl of ethanol are added to 1 ml of this homogenate. The final concentration of the corticoid derivatives is approximately 100 μmol/l. The incubation takes place for different periods at 37° C. At the end of incubation, the samples are extracted three times with 3 ml of chloroform. The combined extracts are evaporated to dryness under nitrogen and taken up with 100 μl of ethanol. The ethanolic solutions are mixed with the same volume of water and the saponification products are separated by HPLC (RP 18, acetonitrile/water-gradient, detection 240 nm). The relative hydrolysis rate is indicated in percent of the hydrolysis rate of the 6α-methylprednisolone-17-propionate-21-acetate.

With `CCC(=O)O[C@]1(C(=O)COC(=O)[C@@H](NC(=O)[C@@H]2CCCN2C(=O)[C@H](C)NC(=O)[C@H](C)NC(=O)C(c2ccccc2)c2ccccc2)C(C)C)CC[C@H]2[C@@H]3C[C@H](C)C4=CC(=O)C=C[C@]4(C)[C@H]3[C@@H](O)C[C@@]21C` [Example 10, N-(N-(N-(N-((Diphenylmethyl)carbonyl)-L-alanyl)-L-alanyl)-L -prolyl)-L-valine [11β,21-dihydroxy-3,20-dioxo-6α-methyl-17-propionyloxy-pregna-1,4-dien-21-yl] ester] (Diphenylacetyl-AAPV-{Methylprednisolone(17-OCOEt)}) the “Relative Hydrolysis Rate [%]” value was 6%.
For `CCC(=O)O[C@]1(C(=O)COC(=O)[C@@H](NC(=O)[C@@H]2CCCN2C(=O)[C@H](C)NC(=O)[C@H](C)NC(=O)N(c2ccccc2)c2ccccc2)C(C)C)CC[C@H]2[C@@H]3C[C@H](C)C4=CC(=O)C=C[C@]4(C)[C@H]3[C@@H](O)C[C@@]21C` [Example 11, N-(N-(N-(N-(Diphenylcarbamoyl)-L-alanyl)-L-alanyl)-L-prolyl)-L-valine [11β,21-dihydroxy-3,20-dioxo-6α-methyl-17-propionyloxy-pregna-1,4-dien-21-yl] ester] ({X8-CO}-AAPV-{Methylprednisolone(17-OCOEt)}), the “Relative Hydrolysis Rate [%]” value was 14%.
In the case of `CCC(=O)O[C@]1(C(=O)COC(=O)[C@@H](NC(=O)[C@@H]2CCCN2C(=O)[C@H](C)NC(=O)[C@H](C)NC(=O)c2ccc3ccccc3c2)C(C)C)CC[C@H]2[C@@H]3C[C@H](C)C4=CC(=O)C=C[C@]4(C)[C@H]3[C@@H](O)C[C@@]21C` [Example 12, N-(N-(N-(N-(2-Naphthoyl)-L-alanyl)-L-alanyl)-L-prolyl)-L-valine [11β,21-dihydroxy-3,20-dioxo-6α-methyl-17-propionyloxy-pregna-1,4-dien-21-yl] ester] (2Naphthoyl-AAPV-{Methylprednisolone(17-OCOEt)}), the “Relative Hydrolysis Rate [%]” value is reported as 4%.
In the case of `CCC(=O)O[C@]1(C(=O)COC(=O)[C@@H](NC(=O)[C@@H]2CCCN2C(=O)[C@H](C)NC(=O)[C@H](C)NC(=O)C=Cc2ccccc2)C(C)C)CC[C@H]2[C@@H]3C[C@H](C)C4=CC(=O)C=C[C@]4(C)[C@H]3[C@@H](O)C[C@@]21C` [Example 13] (X4-AAPV-{Methylprednisolone(17-OCOEt)}), the “Relative Hydrolysis Rate [%]” value is reported as 5%.
For `CCC(=O)O[C@]1(C(=O)COC(=O)[C@@H](NC(=O)[C@@H]2CCCN2C(=O)[C@H](C)NC(=O)[C@H](C)NS(=O)(=O)c2ccc(Cl)cc2)C(C)C)CC[C@H]2[C@@H]3C[C@H](C)C4=CC(=O)C=C[C@]4(C)[C@H]3[C@@H](O)C[C@@]21C` [Example 14, N-(N-(N-(N-(4-Chlorobenzenesulfonyl)-L-alanyl)-L-alanyl)-L -prolyl)-L-valine [11β,21-dihydroxy-3,20-dioxo-6α-methyl-17-propionyloxy-pregna-1,4-dien-21-yl] ester] (X7-AAPV-{Methylprednisolone(17-OCOEt)}), the “Relative Hydrolysis Rate [%]” value was 6%.
With `CCC(=O)O[C@]1(C(=O)COC(=O)[C@@H](NC(=O)[C@@H]2CCCN2C(=O)[C@H](C)NC(=O)[C@H](C)NC(=O)CCn2c3ccccc3c3ccccc32)C(C)C)CC[C@H]2[C@@H]3C[C@H](C)C4=CC(=O)C=C[C@]4(C)[C@H]3[C@@H](O)C[C@@]21C` [Example 16, N-(N-(N-(N-(3-(Carbazol-9-yl)-propionyl)-L-alanyl)-L-alanyl)-L -prolyl)-L-valine [11β,21-dihydroxy-3,20-dioxo-6α-methyl-17-propionyloxy-pregna-1,4-dien-21-yl] ester] (X6-AAPV-{Methylprednisolone(17-OCOEt)}) the “Relative Hydrolysis Rate [%]” value was 3%.
